Source: ChEMBL document CHEMBL4376815, “The Development Process for Discovery and Clinical Advancement of Modern Antimalarials” (J Med Chem, 2019)
In brackets after ≈: the same amount, converted by molar mass.

Assays:
[1] = Drug recovery in feces of po dosed human by LC-MS/MS analysis; type: ADME, organism-based; conditions: faeces, read-out: Drug recovery
[2] = Cmax in Beagle dog at 3 mg/kg, po by LC-MS/MS analysis; type: ADME, organism-based, Canis lupus familiaris; parameters: dose 3 mg/kg, route oral; conditions: in vivo
[3] = Oral bioavailability in Wistar Hannover rat at 10 mg/kg by LC-MS/MS analysis; type: ADME, organism-based; conditions: in vivo
[4] = Cmax in Wistar Hannover rat at 10 mg/kg, po by LC-MS/MS analysis; type: ADME, organism-based; parameters: dose 10 mg/kg, route oral; conditions: in vivo
[5] = tested on: Plasmodium berghei; assay: Antimalarial activity against Plasmodium berghei infected in NMRI mouse assessed as reduction in parasite growth at 50 mg/kg, po administered daily for 3 consecutive days by flow cytometric analysis relative to control; type: functional; parameters: scale not given: the % may be the effect or the level left
[6] = tested on: Plasmodium berghei; assay: Antimalarial activity against Plasmodium berghei infected in NMRI mouse assessed as mean survival days at 30 mg/kg, po administered once and measured up to 30 days; type: functional
[7] = Half life in human at 30 mg/kg, po; conditions: in vivo
[8] = Metabolic stability in human assessed as paren compound remaining at […], po by LC-MS/MS analysis; type: ADME, organism-based; conditions: in vivo
[9] = tested on: Plasmodium berghei; assay: Antimalarial activity against Plasmodium berghei infected in NMRI mouse assessed as mean survival days at 10 mg/kg, po administered once and measured up to 30 days; type: functional
[10] = tested on: Plasmodium falciparum; assay: Antimalarial activity against Plasmodium falciparum infected in human assessed as parasite clearance time at 30 mg/kg, po; type: functional
[11] = Half life in human at 300 mg/kg, po by LC-MS/MS analysis; conditions: in vivo
[12] = tested on: Plasmodium falciparum; assay: Antimalarial activity against Plasmodium falciparum infected in po dosed human assessed as reduction in parasite growth; type: functional
[13] = Half life in Beagle dog at 1 mg/kg, iv by LC-MS/MS analysis; conditions: in vivo
[14] = AUC (0 to 24 hrs) in human at 150 mg, po for 3 days and measured on day 3 by LC-MS/MS analysis; conditions: in vivo
[15] = tested on: Plasmodium falciparum; assay: Antimalarial activity against Plasmodium falciparum 3D7 infected in human erythrocytes assessed as reduction in [3H]-hypoxanthine incorporation incubated for 48 hrs followed by addition of [3H]-hypoxanthine and measured after 24 hrs by liquid scintillation counting method; type: functional, organism-based
[16] = Plasma protein binding in human; type: ADME, cell-free; conditions: read-out: PPB
[17] = in vivo; conditions: rat, po, 23.7 mg/kg
Description: Half life in rat at 23.7 mg/kg, po and measured up to 24 hrs by LC/MS analysis

[18] = tested on: Plasmodium falciparum; assay: Antimalarial activity against Plasmodium falciparum TM91C235 infected in human erythrocytes assessed as reduction in [3H]-hypoxanthine incorporation incubated for 48 hrs followed by addition of [3H]-hypoxanthine and measured after 24 hrs by liquid scintillation counting method; type: functional, organism-based
[19] = Tmax in Wistar Hannover rat at 10 mg/kg, po by LC-MS/MS analysis; type: ADME, organism-based; conditions: in vivo
[20] = tested on: Plasmodium berghei; assay: Antimalarial activity against Plasmodium berghei infected in NMRI mouse assessed as reduction in parasite growth at 10 mg/kg, po administered once and measured after 96 hrs by flow cytometric analysis relative to control; type: functional; parameters: scale not given: the % may be the effect or the level left
[21] = tested on: Plasmodium berghei; assay: Antimalarial activity against Plasmodium berghei infected in po dosed NMRI mouse assessed as reduction in parasite growth administered daily for 3 consecutive days by flow cytometric analysis; type: functional
[22] = Cmax in human at 150 mg, po for 3 days and measured on day 3 by LC-MS/MS analysis; conditions: in vivo
[23] = tested on: Plasmodium falciparum; assay: Antimalarial activity against Plasmodium falciparum infected in human assessed as median clearance time at 30 mg/kg, po administered daily for 3 consecutive day and measured on day 5; type: functional
[24] = biological target: Voltage-gated inwardly rectifying potassium channel KCNH2 (Homo sapiens, UniProt Q12809); assay: Inhibition of human ERG by binding assay
Sequence of Voltage-gated inwardly rectifying potassium channel KCNH2 (Q12809 whole entry): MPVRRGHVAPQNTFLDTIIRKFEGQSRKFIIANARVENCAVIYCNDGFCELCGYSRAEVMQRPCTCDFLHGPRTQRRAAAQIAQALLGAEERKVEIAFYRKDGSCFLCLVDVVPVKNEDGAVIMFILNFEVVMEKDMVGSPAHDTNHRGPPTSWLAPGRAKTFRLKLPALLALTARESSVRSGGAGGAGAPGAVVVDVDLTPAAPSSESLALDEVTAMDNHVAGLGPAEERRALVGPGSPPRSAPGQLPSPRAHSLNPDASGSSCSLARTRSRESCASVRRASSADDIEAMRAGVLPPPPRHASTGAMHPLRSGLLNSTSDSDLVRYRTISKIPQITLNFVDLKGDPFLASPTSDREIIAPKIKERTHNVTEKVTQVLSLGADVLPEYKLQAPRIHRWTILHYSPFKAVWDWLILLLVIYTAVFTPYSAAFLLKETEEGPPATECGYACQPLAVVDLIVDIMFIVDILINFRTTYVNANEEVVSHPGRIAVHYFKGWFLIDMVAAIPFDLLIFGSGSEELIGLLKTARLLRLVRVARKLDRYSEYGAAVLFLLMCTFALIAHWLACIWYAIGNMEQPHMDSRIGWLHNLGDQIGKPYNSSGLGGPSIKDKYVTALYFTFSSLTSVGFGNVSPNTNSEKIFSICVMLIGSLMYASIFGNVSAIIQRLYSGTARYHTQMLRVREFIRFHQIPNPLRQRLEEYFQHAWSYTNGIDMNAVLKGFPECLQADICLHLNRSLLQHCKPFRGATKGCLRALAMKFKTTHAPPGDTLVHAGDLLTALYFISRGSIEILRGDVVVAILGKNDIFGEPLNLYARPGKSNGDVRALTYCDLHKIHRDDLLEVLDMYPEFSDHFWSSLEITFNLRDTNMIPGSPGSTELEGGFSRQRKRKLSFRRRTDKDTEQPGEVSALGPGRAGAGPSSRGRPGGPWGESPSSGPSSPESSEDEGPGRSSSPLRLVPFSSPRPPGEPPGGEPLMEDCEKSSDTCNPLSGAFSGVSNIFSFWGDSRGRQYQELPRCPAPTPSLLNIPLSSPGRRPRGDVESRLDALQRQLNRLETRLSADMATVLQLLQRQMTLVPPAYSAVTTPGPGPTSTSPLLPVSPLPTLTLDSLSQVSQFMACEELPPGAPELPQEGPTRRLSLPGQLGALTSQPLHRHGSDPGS

[25] = tested on: Plasmodium falciparum; assay: Antimalarial activity against Plasmodium falciparum 7G8 infected in human erythrocytes assessed as reduction in [3H]-hypoxanthine incorporation incubated for 48 hrs followed by addition of [3H]-hypoxanthine and measured after 24 hrs by liquid scintillation counting method; type: functional, organism-based
[26] = Cmax in human at 150 mg, po for 3 days and measured on day 1 by LC-MS/MS analysis; conditions: in vivo
[27] = AUC (0 to 24 hrs) in human at 300 mg, po by LC-MS/MS analysis; conditions: in vivo
[28] = tested on: Plasmodium falciparum; assay: Antimalarial activity against Plasmodium falciparum TM90C2A infected in human erythrocytes assessed as reduction in [3H]-hypoxanthine incorporation incubated for 48 hrs followed by addition of [3H]-hypoxanthine and measured after 24 hrs by liquid scintillation counting method; type: functional, organism-based
[29] = tested on: Plasmodium berghei; assay: Antimalarial activity against Plasmodium berghei infected in NMRI mouse assessed as reduction in parasite growth at 30 mg/kg, po administered daily for 3 consecutive days by flow cytometric analysis relative to control; type: functional; parameters: scale not given: the % may be the effect or the level left
[30] = AUC (0 to 24 hrs) in human at 150 mg, po for 3 days and measured on day 1 by LC-MS/MS analysis; conditions: in vivo
[31] = tested on: Plasmodium berghei; assay: Antimalarial activity against Plasmodium berghei infected in NMRI mouse assessed as reduction in parasite growth at 5.3 mg/kg, po administered daily for 3 consecutive days by flow cytometric analysis relative to control; type: functional; parameters: scale not given: the % may be the effect or the level left
[32] = Clearance in Beagle dog at 1 mg/kg, iv by LC-MS/MS analysis; type: ADME, organism-based, Canis lupus familiaris; conditions: in vivo
[33] = tested on: Plasmodium falciparum; assay: Antimalarial activity against Plasmodium falciparum D6 infected in human erythrocytes assessed as reduction in [3H]-hypoxanthine incorporation incubated for 48 hrs followed by addition of [3H]-hypoxanthine and measured after 24 hrs by liquid scintillation counting method; type: functional, organism-based
[34] = Tmax in mouse at 24.6 mg/kg, po and measured up to 24 hrs by LC/MS analysis; type: ADME, organism-based; conditions: in vivo
[35] = tested on: Plasmodium berghei; assay: Antimalarial activity against Plasmodium berghei infected in NMRI mouse assessed as mean survival days at 100 mg/kg, po administered once and measured up to 30 days; type: functional
[36] = Cytotoxicity against human THP1 cells assessed as reduction in cell viability after 4 days by XTT assay; type: cell-based; conditions: THP-1 cells
[37] = Oral bioavailability in Beagle dog at 3 mg/kg by LC-MS/MS analysis; type: ADME, organism-based, Canis lupus familiaris; conditions: in vivo
[38] = Tmax in Beagle dog at 3 mg/kg, po by LC-MS/MS analysis; type: ADME, organism-based, Canis lupus familiaris; conditions: in vivo
[39] = tested on: Plasmodium falciparum; assay: Antimalarial activity against Plasmodium falciparum NF54 infected in human erythrocytes assessed as reduction in [3H]-hypoxanthine incorporation incubated for 48 hrs followed by addition of [3H]-hypoxanthine and measured after 24 hrs by liquid scintillation counting method; type: functional, organism-based
[40] = tested on: Plasmodium vivax; assay: Antimalarial activity against Plasmodium vivax infected in human assessed as parasite clearance time at 30 mg/kg, po administered daily for 3 consecutive day and measured on day 5; type: functional
[41] = tested on: Plasmodium falciparum; assay: Antimalarial activity against Plasmodium falciparum infected in human assessed as median parasite clearance time at 30 mg/kg, po administered daily for 3 consecutive day and measured on day 5; type: functional

C[C@H]1Cc2c([nH]c3cc(Cl)c(F)cc23)[C@@]2(N1)C(=O)Nc1ccc(Cl)cc12 [CIPARGAMIN]
dose excreted [1]: 32% | Cmax [2]: 868 ng/mL | bioavailability [3]: 85% | Cmax [4]: 1210 ng/mL | Activity [5]: 100% | MSD [6]: 24.1 days | half-life [7]: 20.8 h | Stability [8]: 75% | MSD [9]: 13.3 days | Time [10]: 10 h | half-life [11]: 24 h | MIC [12]: 0.126 ng/mL (≈ 0.323 nM) | half-life [13]: 10.9 h | AUC at 24 h [14]: 29400 ng·h/mL | EC50 [15]: 0.5 to 1.4 nM | fraction unbound [16]: < 0.003 | half-life at 24 h [17]: 27.7 h | EC50 [18]: 0.5 to 1.4 nM | Tmax [19]: 5.3 h | Activity [20]: 9.96% | ED50 [21]: 1.2 mg/kg | ED90 [21]: 2.7 mg/kg | ED99 [21]: 5.3 mg/kg | Cmax [22]: 1770 ng/mL | Time [23]: 16 h | IC50 [24]: ≥ 30000 nM | EC50 [25]: 0.5 to 1.4 nM | Cmax [26]: 1170 ng/mL | AUC(0-t) at 24 h [27]: 36000 ng·h/mL | EC50 [28]: 0.5 to 1.4 nM | Activity [29]: 90% | AUC(0-t) at 24 h [30]: 15000 ng·h/mL | Activity [31]: 99% | clearance [32]: 3.35 mL/min/kg | EC50 [33]: 0.5 to 1.4 nM | Tmax [34]: 1 h | MSD [35]: >30 days | CC50 at 96 h [36]: > 10000 nM | bioavailability [37]: 68% | Tmax [38]: 1.7 h | EC50 [39]: 0.5 to 1.4 nM | Time [40]: 30 h | Time [41]: 12 h
